Data: patent EP4635500A1, “THERAPEUTIC AGENT FOR BACTERIAL INFECTION” (Sumitomo Pharma Co., Ltd., priority 2022, dated 2024)
In brackets after ≈: the same amount, converted by molar mass. Read-outs that look alike come from different tables or passages of the source.

Columns and labels:
Escherichia coli = assay: MIC and MBC, broth microdilution (Example 4, Table 3); format: cell-based; details: for MBC: read-out: MBC; for MIC: read-out: MIC
Morganella morganii = assay: as above; format: cell-based; details: Morganella morganii CDC-57 (NDM-1)
Acinetobacter baumannii [1] = assay: as above; format: cell-based; details: for MBC: Acinetobacter baumannii
Klebsiella pneumoniae = assay: MIC, Gram-negative bacteria clinically isolated in the United States (Example 8, Table 16); format: cell-based; details: K. pneumoniae (80 strains) isolated in the United States, Compound A µg/mL in parentheses
E. coli = assay: as above; format: cell-based; details: E. coli (80 strains) isolated in the United States, Compound A µg/mL in parentheses
Bacteroides spp. = assay: MIC, agar dilution, anaerobic bacteria (Example 9, Tables 17, 22); format: cell-based; details: for MIC: (n)=Compound A µg/mL, 0=Compound A alone antibacterial
[2] = mouse, in vivo
[3] = tested on: E. coli ATCCBAA-2469 producing NDM-1; assay: Systemic infection lethal mouse model, ED50 (Example 14, Table 32); details: 7 days after infection
Protocol: The test strains on the agar medium were suspended in saline and adjusted to a Klett unit of about 200 using a Klett Photoelectric Colorimeter. […] Male ICR mice were inoculated intraperitoneally with 0.2 mL of the bacterial suspension. Two hours after the inoculation, saline or a solution for administering the agent at each concentration was administered subcutaneously to the mice in a single dose. The number of mice that survived from Day 1 to Day 7 after infection was recorded.

Acinetobacter baumannii [4] = assay: Systemic infection lethal mouse model, ED50 (Example 15, Table 34); details: for ED50: Acinetobacter baumannii, in Mus musculus; for Survival rate: 7 days after infection
Protocol: (§1) The test strains on the agar medium were suspended in saline and adjusted to a Klett unit of about 200 using a Klett Photoelectric Colorimeter. […] Male ICR mice were inoculated intraperitoneally with 0.2 mL of the bacterial suspension. Two hours after the inoculation, saline or a solution for administering the agent of each concentration was administered subcutaneously to the mice in a single dose. The number of mice that survived from Day 1 to Day 7 after infection was recorded.

P. aeruginosa = assay: Systemic infection lethal mouse model, ED50 (Example 15, Table 33); details: for Survival rate: 7 days after infection; for ED50: Pseudomonas aeruginosa, in Mus musculus, sc
Protocol: as §1

[5] = ATCCBAA2340, Escherichia coli ATCC BAA-2340 (KPC-3)
[6] = ATCCBAA2469, Escherichia coli ATCC BAA-2469 (NDM-1)
[7] = Escherichia coli NCTC13476 (IMP-1)
[8] = Acinetobacter baumannii CDC-303 (OXA-23, OXA-66)

Structure (SMILES): C[C@@H](O)[C@H]1C(=O)N2C(C(=O)O)=C(S[C@@H]3CN[C@H](C(=O)N(C)C)C3)[C@H](C)[C@H]12 [MEPM, meropenem]
- MBC (Escherichia coli; [5]): 8 µg/mL (≈ 20.9 µM)
- MIC (Escherichia coli; [5]): 4 µg/mL (≈ 10.4 µM)
- MBC (Escherichia coli; [6]): 32 µg/mL (≈ 83.4 µM)
- MIC (Escherichia coli; [6]): 32 µg/mL (≈ 83.4 µM)
- MBC (Escherichia coli; [7]): 8 µg/mL (≈ 20.9 µM)
- MIC (Escherichia coli; [7]): 4 µg/mL (≈ 10.4 µM)
- MBC (Morganella morganii): 8 µg/mL (≈ 20.9 µM)
- MIC (Morganella morganii): 8 µg/mL (≈ 20.9 µM)
- MIC (Acinetobacter baumannii [1]; [8]): 64 µg/mL (≈ 167 µM)
- MIC (Acinetobacter baumannii [1]; Acinetobacter baumannii CDC-304 (OXA-66, OXA-72), read-out: MIC): 64 µg/mL (≈ 167 µM)
- MBC (Acinetobacter baumannii [1]; [8]): 64 µg/mL (≈ 167 µM)
- MBC (Acinetobacter baumannii [1]; Acinetobacter baumannii CDC-304 (OXA-66, OXA-72)): 64 µg/mL (≈ 167 µM)
- MIC50 (Klebsiella pneumoniae): ≤ 0.125 µg/mL
- MIC90 (Klebsiella pneumoniae): 4 µg/mL (≈ 10.4 µM)
- MICrange (E. coli): ≤0.125 to 16 µg/mL
- MIC50 (E. coli; Escherichia coli): ≤ 0.125 µg/mL
- MIC90 (E. coli; Escherichia coli): ≤ 0.125 µg/mL
- MIC50 (Bacteroides spp.; Bacteroides spp.): 0.5 µg/mL (≈ 1.3 µM)
- MIC90 (Bacteroides spp.; Bacteroides spp.): 4 µg/mL (≈ 10.4 µM)
- MIC (Bacteroides spp.; Bacteroides, KUB No. 2982 Bacteroidesfragilis): 0.12 µg/mL (≈ 0.313 µM)
- MIC (Bacteroides spp.; Bacteroides, KUB No. 6464 Bacteroides vulgarus): 0.12 µg/mL (≈ 0.313 µM)
- MIC (Bacteroides spp.; Bacteroides, KUB No. 6480 Bacteroides thetaioraomicron): 1 µg/mL (≈ 2.61 µM)
- MIC (Bacteroides spp.; Bacteroides, KUB No. 6487 Bacteroides thetaiotamicron): 2 µg/mL (≈ 5.22 µM)
- MIC50 (Bacteroides spp.; Bacteroides, n=56, combination: Compound A at 4 ug/mL, read-out: MIC50): 0.5 µg/mL
- MIC90 (Bacteroides spp.; Bacteroides, n=56, combination: Compound A at 4 ug/mL, read-out: MIC90): 4 µg/mL
- MIC (Bacteroides spp.; KUB No. 2977 Bacteroides thetaiotaomicron ATCC 29741): 0.25 µg/mL (≈ 0.652 µM)
- MIC (Bacteroides spp.; KUB No. 2983 Bacteroides fragilis): 4 µg/mL (≈ 10.4 µM)
- MIC (Bacteroides spp.; KUB No. 2984 Bacteroides thetaiotaomicron): 0.25 µg/mL (≈ 0.652 µM)
- MIC (Bacteroides spp.; KUB No. 3003 Bacteroides fragilis ATCC 25285): 0.12 µg/mL (≈ 0.313 µM)
- MIC (Bacteroides spp.; KUB No. 3009 Bacteroides ovatus): 1 µg/mL (≈ 2.61 µM)
- MIC (Bacteroides spp.; KUB No. 6458 Bacteroides fragilis): 0.5 µg/mL (≈ 1.3 µM)
- MIC (Bacteroides spp.; KUB No. 6459 Bacteroides stercoris): 0.25 µg/mL (≈ 0.652 µM)
- MIC (Bacteroides spp.; KUB No. 6460 Bacteroides thetaiotaomicron): 2 µg/mL (≈ 5.22 µM)
- MIC (Bacteroides spp.; KUB No. 6461 Bacteroides fragilis): 0.5 µg/mL (≈ 1.3 µM)
- MIC (Bacteroides spp.; KUB No. 6463 Bacteroides fragilis): 0.12 µg/mL (≈ 0.313 µM)
- MIC (Bacteroides spp.; KUB No. 6465 Bacteroides thetaiotaomicron): 0.5 µg/mL (≈ 1.3 µM)
- MIC (Bacteroides spp.; KUB No. 6466 Bacteroides fragilis): 4 µg/mL (≈ 10.4 µM)
- MIC (Bacteroides spp.; KUB No. 6467 Bacteroides fragilis): 0.12 µg/mL (≈ 0.313 µM)
- MIC (Bacteroides spp.; KUB No. 6468 Bacteroides fragilis): 4 µg/mL (≈ 10.4 µM)
- MIC (Bacteroides spp.; KUB No. 6469 Bacteroides fragilis): 0.25 µg/mL (≈ 0.652 µM)
- MIC (Bacteroides spp.; KUB No. 6470 Bacteroides fragilis): 0.25 µg/mL (≈ 0.652 µM)
- MIC (Bacteroides spp.; KUB No. 6471 Bacteroides fragilis): 0.12 µg/mL (≈ 0.313 µM)
- MIC (Bacteroides spp.; KUB No. 6472 Bacteroides stercoris): 1 µg/mL (≈ 2.61 µM)
- MIC (Bacteroides spp.; KUB No. 6473 Bacteroides fragilis): 0.25 µg/mL (≈ 0.652 µM)
- MIC (Bacteroides spp.; KUB No. 6474 Bacteroides fragilis): 1 µg/mL (≈ 2.61 µM)
- MIC (Bacteroides spp.; KUB No. 6475 Bacteroides thetaiotaomicron): 2 µg/mL (≈ 5.22 µM)
- MIC (Bacteroides spp.; KUB No. 6476 Bacteroides vulgatus): 0.5 µg/mL (≈ 1.3 µM)
- MIC (Bacteroides spp.; KUB No. 6477 Bacteroides fragilis): 4 µg/mL (≈ 10.4 µM)
- MIC (Bacteroides spp.; KUB No. 6478 Bacteroides fragilis): 0.12 µg/mL (≈ 0.313 µM)
- MIC (Bacteroides spp.; KUB No. 6481 Bacteroides fragilis): 0.12 µg/mL (≈ 0.313 µM)
- MIC (Bacteroides spp.; KUB No. 6483 Bacteroides fragilis): 0.12 µg/mL (≈ 0.313 µM)
- MIC (Bacteroides spp.; KUB No. 6484 Bacteroides fragilis): 0.25 µg/mL (≈ 0.652 µM)
- MIC (Bacteroides spp.; KUB No. 6485 Bacteroides vulgatus): 8 µg/mL (≈ 20.9 µM)
- MIC (Bacteroides spp.; KUB No. 6486 Bacteroides fragilis): 0.12 µg/mL (≈ 0.313 µM)
- MIC (Bacteroides spp.; KUB No. 6490 Bacteroides fragilis): 64 µg/mL (≈ 167 µM)
- MIC (Bacteroides spp.; KUB No. 6491 Bacteroides fragilis): 16 µg/mL (≈ 41.7 µM)
- MIC (Bacteroides spp.; KUB No. 6493 Bacteroides thetaiotaomicron): 0.25 µg/mL (≈ 0.652 µM)
- MIC (Bacteroides spp.; KUB No. 6496 Bacteroides fragilis): 0.12 µg/mL (≈ 0.313 µM)
- MIC (Bacteroides spp.; KUB No. 6497 Bacteroides vulgatus): 0.12 µg/mL (≈ 0.313 µM)
- MIC (Bacteroides spp.; KUB No. 6502 Bacteroides fragilis): 16 µg/mL (≈ 41.7 µM)
- MIC (Bacteroides spp.; KUB No. 6503 Bacteroides thetaiotaomicron): 0.5 µg/mL (≈ 1.3 µM)
- MIC (Bacteroides spp.; KUB No. 6504 Bacteroides caccae): 0.25 µg/mL (≈ 0.652 µM)
- MIC (Bacteroides spp.; KUB No. 6506 Bacteroides thetaiotaomicron): 4 µg/mL (≈ 10.4 µM)
- MIC (Bacteroides spp.; KUB No. 6509 Bacteroides fragilis): > 512 µg/mL
- MIC (Bacteroides spp.; KUB No. 6511 Bacteroides salyersiae): 1 µg/mL (≈ 2.61 µM)
- MIC (Bacteroides spp.; KUB No. 6513 Bacteroides fragilis): 0.25 µg/mL (≈ 0.652 µM)
- MIC (Bacteroides spp.; KUB No. 6515 Bacteroides thetaiotaomicron): 2 µg/mL (≈ 5.22 µM)
- MIC (Bacteroides spp.; KUB No. 6518 Bacteroides fragilis): 0.06 µg/mL (≈ 0.156 µM)
- MIC (Bacteroides spp.; KUB No. 6522 Bacteroides fragilis): 0.25 µg/mL (≈ 0.652 µM)
- MIC (Bacteroides spp.; KUB No. 6523 Bacteroides fragilis): 4 µg/mL (≈ 10.4 µM)
- MIC (Bacteroides spp.; KUB No. 6525 Bacteroides fragilis): 4 µg/mL (≈ 10.4 µM)
- MIC (Bacteroides spp.; KUB No. 6527 Bacteroides thetaiotaomicron): 4 µg/mL (≈ 10.4 µM)
- MIC (Bacteroides spp.; KUB No. 6530 Bacteroides thetaiotaomicron): 2 µg/mL (≈ 5.22 µM)
- MIC (Bacteroides spp.; KUB No. 6535 Bacteroides fragilis): 0.12 µg/mL (≈ 0.313 µM)
- MIC (Bacteroides spp.; KUB No. 6544 Bacteroides vulgatus): 1 µg/mL (≈ 2.61 µM)
- MIC (Bacteroides spp.; KUB No. 6545 Bacteroides thetaiotaomicron): 2 µg/mL (≈ 5.22 µM)
- MIC (Bacteroides spp.; KUB No. 6556 Bacteroides vulgatus): 1 µg/mL (≈ 2.61 µM)
- %fT > 8 µg/mL [2]: ≥ 40%
- Survival rate ([3]; Dose 10 mg/kg): 10%
- Survival rate ([3]; Dose 30 mg/kg): 0%
- Survival rate ([3]; Dose 60 mg/kg): 0%
- Survival rate ([3]; Dose 100 mg/kg): 80%
- ED50 of MEPM (Acinetobacter baumannii [4]; Acinetobacter baumannii CDC-303 (OXA-23, OXA-66), single s.c. dose, with cilastatin 100 mg/kg): ≥ 300 mg/kg
- ED50 (Acinetobacter baumannii [4]; read-out: ED50 of MEPM, value estimated by probit analysis, CDC-83 (Serine and metallo), cell prints ND, estimate in brackets, above the highest dose of 300 mg/kg): 401 mg/kg
- ED50 (Acinetobacter baumannii [4]; read-out: ED50 of MEPM, value estimated by probit analysis, CDC-303 (Serine), cell prints ND, estimate in brackets, above the highest dose of 300 mg/kg): 6550 mg/kg
- ED50 (Acinetobacter baumannii [4]; sc, read-out: ED50 of MEPM): ≥ 300 mg/kg
- Survival rate (Acinetobacter baumannii [4]; CDC-83 (Serine and metallo), Dose 30 mg/kg): 0%
- Survival rate (Acinetobacter baumannii [4]; CDC-83 (Serine and metallo), Dose 100 mg/kg): 10%
- Survival rate (Acinetobacter baumannii [4]; CDC-83 (Serine and metallo), Dose 200 mg/kg): 20%
- Survival rate (Acinetobacter baumannii [4]; CDC-83 (Serine and metallo), Dose 300 mg/kg): 40%
- Survival rate (Acinetobacter baumannii [4]; CDC-303 (Serine), Dose 50 mg/kg): 10%
- Survival rate (Acinetobacter baumannii [4]; CDC-303 (Serine), Dose 100 mg/kg): 0%
- Survival rate (Acinetobacter baumannii [4]; CDC-303 (Serine), Dose 200 mg/kg): 10%
- Survival rate (Acinetobacter baumannii [4]; CDC-303 (Serine), Dose 300 mg/kg): 20%
- Survival rate (P. aeruginosa; CDC-90 (Serine), Dose 10 mg/kg): 0%
- Survival rate (P. aeruginosa; CDC-90 (Serine), Dose 30 mg/kg): 10%
- Survival rate (P. aeruginosa; CDC-90 (Serine), Dose 100 mg/kg): 90%
- Survival rate (P. aeruginosa; CDC-90 (Serine), Dose 300 mg/kg): 100%
- Survival rate (P. aeruginosa; CDC-110 (Metallo), Dose 100 mg/kg): 0%
- Survival rate (P. aeruginosa; CDC-110 (Metallo), Dose 150 mg/kg): 30%
- Survival rate (P. aeruginosa; CDC-110 (Metallo), Dose 200 mg/kg): 60%
- Survival rate (P. aeruginosa; CDC-110 (Metallo), Dose 300 mg/kg): 60%
- ED50 (P. aeruginosa; 2 h, read-out: ED50 of MEPM (95% confidence intervals), CDC-90 (Serine), single subcutaneous dose 2 hours after infection, with cilastatin at 100 mg/kg): 54.8 mg/kg
- ED50 (P. aeruginosa; 2 h, read-out: ED50 of MEPM (95% confidence intervals), CDC-110 (Metallo), single subcutaneous dose 2 hours after infection, with cilastatin at 100 mg/kg): 218 mg/kg
- ED50 (P. aeruginosa; read-out: ED50 of MEPM, P. aeruginosa CDC-90 (KPC-5), single s.c. dose, with cilastatin 100 mg/kg): 54.8 mg/kg
- ED50 (P. aeruginosa; read-out: ED50 of MEPM, P. aeruginosa CDC-110 (VIM-2), single s.c. dose, with cilastatin 100 mg/kg): 218 mg/kg
